Results taken from paper PMC10177516, “Design and Biological Evaluation of Small-Molecule PET-Tracers for Imaging of Programmed Death Ligand 1” (Cancers, 2023).
Like-named read-outs stand apart in the source and are kept apart here.

What was measured:
[1] = log D7.4 determination, shake-flask n-octanol/PBS; type: physicochemical; details: ^64Cu-labeled, n-octanol/PBS pH 7.4, mean ± SD, n=3
Method: n-Octanol/water distribution coefficients (log D7.4) were determined using the shake-flask method and performed in triplicate. Twenty µL of the reaction mixture was added to a 1.5 mL Eppendorf Tube containing 580 µL of 1× PBS (pH 7.4) and 600 µL n-octanol. The two-phase system was shaken at room temperature with 1500 rpm for 5 min. After centrifugation, an aliquot of each phase was withdrawn, and the count rates were measured in a γ-counter (ISOMED2160 sodium iodide crystal detector). The average was calculated, corrected for background activity, and the log D7.4 value was calculated according to the formula: logD7.4=logAn−octanol/APBS .

[2] = Proteolytic stability in human serum, radio-HPLC; type: in vitro ADME; details: ^177Lu-labeled, throughout the study (up to seven days)
Method: The corresponding radiotracer was labeled with approx. 50 MBq of ^177Lu in 200 µL HEPES solution (pH 4) as described above. After successful labeling, the reaction mixture was diluted 1:10 with human serum. The solution was incubated at 37 °C with shaking at 500 rpm. After 1 h, 24 h, 48 h, 72 h, and 7 d, a 1 µL aliquot was analyzed by radio-TLC as described above. Evaluation and graphical plotting were performed with OriginPro® 9.0.
For investigation by radio-HPLC, a chloroform–methanol precipitation was carried out at each time point. An aliquot (100 µL) of the serum-containing incubation reaction was mixed with 400 µL of MeOH. Then, 100 µL of chloroform were added and the sample was vortexed well. For phase separation, 300 µL of ultrapure water were added, and the sample was vortexed vigorously and centrifuged for 2 min at 14,000× g. The upper, aqueous layer was carefully removed and collected. To the lower chloroform phase and the interphase containing the precipitated proteins, 400 µL of MeOH was added. The sample was mixed and centrifuged again for 3 min at 14,000× g to pellet the proteins. […] Afterward, the clear supernatant was analyzed by radio-HPLC (system E). The peak areas were normalized by measuring the activity with the gamma counter (HIDEX Deutschland Vertrieb GmbH, Mainz, Germany) at the corresponding time point. Evaluation and graphical plotting were performed with OriginPro® 9.0.

[3] = system: PC3 PD-L1 and PC3 mock tumors; assay: Small animal PET/CT in tumor-bearing mice; type: in vivo, NMRI-nude mice; details: blocking with 100 nmol of the respective unlabeled compound; PET
Method: Male athymic NMRI-nude mice (Rj:NMRI-Foxn1nu, Janvier Labs, Le Genest-Saint-Isle, France) between 8 and 22 weeks of age were used. Under general anesthesia, [~10% desflurane (Baxter, Deerfield, IL, USA) in 30 vol% oxygen + air] and warming, animals were subcutaneously injected with 3–5 × 10^6 PC3 PD-L1 and PC3 mock cells [in 50 µL PBS + 50 µL Matrigel (Corning, Glendale, CA, USA)] into the right and left thigh, respectively. Tumor growth was monitored three times a week by caliper measurements and mice with tumor sizes above 7 mm were included in the experiments.
For PET studies, general anesthesia was induced as described above. PET and X-ray computed tomography (CT) were performed in a dedicated small animal nanoScan PET/CT scanner, with 4 animals imaged simultaneously (Mediso, Budapest, Hungary). CT images were employed for attenuation correction and anatomical referencing. Animals received three individual scans corresponding to 0–2 h (dynamic), 4.5 h, and 24 h (static) post injection. […]
Three-dimensional volumes of interest were delineated applying fixed thresholding at 35% of the measured maximum intensity. Standardized uptake values (SUV = [MBq detected activity/mL tissue]/[MBq injected activity/g body weight], […]) were determined in selected volumes of interest, among these PD-L1 and mock tumors and metabolizing organs.

human serum proteins = assay: Serum protein binding, size-exclusion chromatography; type: in vitro ADME; details: ^177Lu-labeled; human serum 37 °C; 1 h
Method: The corresponding ligand was labeled with approx. 50 MBq of ^177Lu in 200 µL HEPES solution (pH 4) as described above. After successful labeling, 40 µL were mixed with 500 µL of human serum or 500 µL of 1 M HEPES solution (control), respectively. The samples were incubated at 37 °C with 500 rpm and were analyzed by size-exclusion chromatography (Jasco Germany GmbH, Pfungstadt, System F) and native discontinuous polyacrylamide gel electrophoresis (PAGE).
For size-exclusion chromatography, 20 µL aliquots were injected into system F and the obtained peak areas of serum-bound ligands and unbound ligands were used to calculate the percentage of radioligand bound to serum proteins. Evaluation and graphical plotting were performed with OriginPro® 9.0.

PD-L1 [4] = biological target: T1, PD-L1 (Homo sapiens, UniProt Q9NZQ7); assay: Saturation binding assay (endpoint, with 2.5% BSA) on PD-L1-positive PC3 cells
T1 construct: expressed in transfected cells; host or cells: PC3 cells, lentiviral transduction (PC3-PD-L1)
T1 sequence (Q9NZQ7 19-290): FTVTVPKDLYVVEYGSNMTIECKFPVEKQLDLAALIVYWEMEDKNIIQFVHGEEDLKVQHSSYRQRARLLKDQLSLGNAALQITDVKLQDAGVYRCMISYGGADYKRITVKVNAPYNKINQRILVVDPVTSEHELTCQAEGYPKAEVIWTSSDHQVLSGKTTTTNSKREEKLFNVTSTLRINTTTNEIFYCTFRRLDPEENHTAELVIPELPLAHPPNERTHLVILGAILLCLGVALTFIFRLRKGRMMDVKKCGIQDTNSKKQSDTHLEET
Method: To determine the dissociation constant (KD) and number of binding sites (Bmax) of new PD-L1 small-molecule ligands, saturation binding was performed in at least 3 independent experiments. PC3 cells stably transduced with human PD-L1, cultured under conditions described above, were brought to room temperature followed by cooling on ice (each 15 min). The medium was removed and replaced with 200 µL assay buffer [PBS + 2.5% (w/v) bovine serum albumin (BSA; #1ETA, Carl Roth, Karlsruhe, Germany)] for total binding (TB) conditions or assay buffer containing 300 µM of 1 (in DMSO, resulting in 0.03% v/v, synthesized according to Supplementary Scheme S1) for assessment of nonspecific binding (NSB).
After 15 min preincubation for TB/NSB, 200 µL of each eight serial 1:1 dilutions (500 to 3.91 nM) of the respective radioligand were added (in triplicate). […] Radioactivity (counts per minute, CPM) of 400 µL of the lysate was measured in a gamma counter (Perkin Elmer Wizard 1480) using the nuclide-specific energy window. Additionally, we determined the binding to polystyrene in 400 µL of lysate and activity of stock solutions (50 µL). […] Protein content of the lysates (24 or 48 wells) was determined by BCA assay and a mean value (µg/mL) used for this particular dataset (plate). From CPM measurements, final values (pmol/mg protein) were calculated using mean protein content and molar activity. […]

PD-L1 [5] = biological target: T1, PD-L1; assay: Real-time radioligand binding (LigandTracer) on PC3 PD-L1 overexpressing cells; details: for kon: read-out: ka (association rate constant); for koff: read-out: kd (dissociation rate constant)
Method: For binding kinetics (association rate constant ka and dissociation rate constant kd) and dissociation constant (KD), a real-time assay system (LigandTracer Yellow, Ridgeview Instruments AB, Uppsala, Sweden) was employed. In this system, the petri dish containing the cells in medium (3 mL) was located on one side, while radioactivity was detected on the opposite side. The dish rotated on an inclined base, which allowed continuously measuring two or more alternating parts of the dish for bound radioligand (cells) against background (no cells). Binding was performed at room temperature (using CO2-independent medium, Gibco #18045088, ThermoFisher Germany) with or without BSA (2.5%). Association was determined through incubation with two concentrations (10 and 40 nM, 90 min each) of our ^64Cu-labeled PD-L1 small molecules, binding to PC3 PD-L1 overexpressing cells. This was followed by replacement with fresh medium and measurement of dissociation for at least 2 h. This approach provided reliable kinetic measurements as previously shown. Data were acquired in decay-corrected counts per second (CPS). Binding data were then evaluated using TraceDrawer (1.9.2, Ridgeview Instruments AB, Uppsala, Sweden). Traces were imported, potential spikes (>100% sudden increases in CPS over previous datapoint) removed, and each trace was normalized to its own baseline (=0%) and highest value (=100%). The single experiment in the presence of 2.5% BSA was processed in the same way and analyzed for the same parameters, however without replicates.

PD-L1 [6] = system: PD-L1; parameters: method as in earlier work; details: reported values; cited from earlier work
[7] = medium only (no BSA), n = 2, mean ± S.D.

| Structure (SMILES) | logD [1] | intact radiotracer [2] [%] | bound to human serum proteins (mean ± SD) (human serum proteins) [%] | other results |
| --- | --- | --- | --- | --- |
| CN(CC(=O)NCC(S(=O)(=O)O)S(=O)(=O)O)Cc1cc(Cl)c(OCc2cccc(-c3cccc(OCc4cn(CCCC5CCN(C(=O)CN6CCN(CC(=O)O)CCN(CC(=O)O)CCN(CC(=O)O)CC6)CC5)nn4)c3)c2Br)cc1OCc1cncc(S(C)(=O)=O)c1 [42a] | -2.73 | – | – | – |
| CN(CC(=O)NCC(S(=O)(=O)O)S(=O)(=O)O)Cc1cc(Cl)c(OCc2cccc(-c3cccc(OCc4cn(CCOCCOCCN5CCN(C(=O)CN6CCN(CC(=O)O)CCN(CC(=O)O)CCN(CC(=O)O)CC6)CC5)nn4)c3)c2Br)cc1OCc1cncc(S(C)(=O)=O)c1 [42c] | – | > 90 | – | – |
| Cc1c(COc2cc(OCc3cncc(S(C)(=O)=O)c3)c(CN(C)CC(=O)NCC(S(=O)(=O)O)S(=O)(=O)O)cc2Cl)cccc1-c1cccc(OCc2cn(CCCN3CCN(C(=O)CN4CCN(CC(=O)O)CCN(CC(=O)O)CCN(CC(=O)O)CC4)CC3)nn2)c1C [43b] | – | – | – | blocking effect [3]: moderate blocking effect |
| Cc1c(COc2cc(OCc3cncc(S(C)(=O)=O)c3)c(CN(C)CC(=O)NCC(S(=O)(=O)O)S(=O)(=O)O)cc2Cl)cccc1-c1cccc(OCc2cn(CCOCCOCCN3CCN(C(=O)CN4CCN(CC(=O)O)CCN(CC(=O)O)CCN(CC(=O)O)CC4)CC3)nn2)c1C [43c] | -3.5 | > 90 | – | – |
| Cc1c(COc2cc(OCc3cncc(C#N)c3)c(CN(C)CC(=O)NCC(S(=O)(=O)O)S(=O)(=O)O)cc2Cl)cccc1-c1cccc(OCc2cn(CCCN3CCN(C(=O)CN4CCN(CC(=O)O)CCN(CC(=O)O)CCN(CC(=O)O)CC4)CC3)nn2)c1C [56a] | – | > 90 | 95.7 | – |
| Cc1c(COc2cc(OCc3cncc(C#N)c3)c(CN(C)CC(=O)NCC(S(=O)(=O)O)S(=O)(=O)O)cc2Br)cccc1-c1cccc(OCc2cn(CCCN3CCN(C(=O)CN4CCN(CC(=O)O)CCN(CC(=O)O)CCN(CC(=O)O)CC4)CC3)nn2)c1C [56b] | – | > 90 | 94.6 | – |
| Cc1c(COc2cc(OCc3cncc(C#N)c3)c(CN(C)CC(=O)NCC(S(=O)(=O)O)S(=O)(=O)O)cc2I)cccc1-c1cccc(OCc2cn(CCCN3CCN(C(=O)CN4CCN(CC(=O)O)CCN(CC(=O)O)CCN(CC(=O)O)CC4)CC3)nn2)c1C [56c] | – | – | 97.6 | – |
| CCCC[C@H]1C(=O)N(C)[C@@H](CCCC)C(=O)N[C@@H](CCCNC(=O)CCC(C(=O)O)N2CCN(CC(=O)O)CCN(CC(=O)O)CCN(CC(=O)O)CC2)C(=O)N[C@H](C(=O)NCC(N)=O)CSCC(=O)N[C@@H](Cc2ccc(O)cc2)C(=O)N(C)[C@@H](C)C(=O)N[C@@H](CC(N)=O)C(=O)N2CCC[C@H]2C(=O)N[C@@H](Cc2c[nH]cn2)C(=O)N[C@@H](CC(C)C)C(=O)N2C[C@H](O)C[C@H]2C(=O)N[C@@H](Cc2c[nH]c3ccccc23)C(=O)N[C@@H](CO)C(=O)N[C@@H](Cc2cn(C)c3ccccc23)C(=O)N1C (stereo partly drawn) [[^64Cu]Cu-DOTAGA-WL12, metal not drawn] | -2.57 ± 0.02 | – | – | Bmax (maximum number of binding sites) (PD-L1 [4]; ^64Cu complexes, saturation binding with 2.5% BSA, PD-L1-positive PC3 cells): 56.7 ± 3.87 pmol/mg; affinity, times worse than previously reported using SPR (PD-L1 [4]; saturation KD versus SPR value of ref 68): approximately 15 times; kon (PD-L1 [5]; medium + 2.5% BSA, n = 1): 7460 M⁻¹ s⁻¹; koff (PD-L1 [5]; medium + 2.5% BSA, n = 1): 6.74e-06 s⁻¹; kon (PD-L1 [5]; [7]): 12200 M⁻¹ s⁻¹; koff (PD-L1 [5]; [7]): 9.77e-06 s⁻¹ |
| Cc1c(COc2cc(OCc3cncc(C#N)c3)c(CN(C)C(CO)(CO)CO)cc2Cl)cccc1-c1cccc(OCCCN2CCC(F)(F)C2)c1C [compound 3] | – | – | – | IC50 (PD-L1 [6]): 0.5 nM |
